Source: US20260256792A1, “TREATMENT OF CHRONIC SPONTANEOUS URTICARIA BY ADMINISTERING (R)-2-[3-[4-AMINO-3-(2-FLUORO-4-PHENOXY-PHENYL)PYRAZOLO[3,4-D]PYRIMIDIN-1-YL]PIPERIDINE-1-CARBONYL]-4-METHYL-4-[4-(OXETAN-3-YL)PIPERAZIN-1-YL]PENT-2-ENENITRILE” (priority 2023, published 2026)

Test system: angioedema in CSU patients
Experiment: Phase 2 CSU study: angioedema activity score over 7 days (AAS7)
Assay type: in vivo, human
Conditions: for Non-responder n (%), AAS7 = 0 / OR (95% CI) for rilzabrutinib vs. placebo, AAS7 = 0 / RRD (%) for rilzabrutinib vs. placebo (95% CI), AAS7 = 0 / Responder n (%), AAS7 = 0: outlier removed
Excerpt: The study comprises a 12 week, randomized, double-blind, placebo-controlled, multi-center, dose-ranging efficacy and safety phase, followed by a 40 week open label extension (OLE) phase (see FIG. 1). The study consists of three phases and an optional OLE phase. […] The weekly angioedema activity score (AAS7) was proposed as a tertiary endpoint. […] Patients were to complete the AAS using the e-diary. The e-diary was to be used once daily on the same time of each day recording of participant's answers to the angioedema activity score over 7 days (AAS7) questionnaire.

[1] = 400 mg TID, Week 1, ITT, angioedema at baseline
[2] = 400 mg TID, Week 1, omalizumab-naïve
[3] = 400 mg TID, Week 1, omalizumab-naïve, angioedema at baseline
[4] = 400 mg TID, Week 2, ITT, angioedema at baseline
[5] = 400 mg TID, Week 2, omalizumab-naïve
[6] = 400 mg TID, Week 2, omalizumab-naïve, angioedema at baseline
[7] = 400 mg TID, Week 3, ITT, angioedema at baseline
[8] = 400 mg TID, Week 3, omalizumab-naïve
[9] = 400 mg TID, Week 3, omalizumab-naïve, angioedema at baseline
[10] = 400 mg TID, Week 4, ITT, angioedema at baseline
[11] = 400 mg TID, Week 4, omalizumab-naïve
[12] = 400 mg TID, Week 4, omalizumab-naïve, angioedema at baseline
[13] = 400 mg TID, Week 5, ITT, angioedema at baseline
[14] = 400 mg TID, Week 5, omalizumab-naïve
[15] = 400 mg TID, Week 5, omalizumab-naïve, angioedema at baseline
[16] = 400 mg TID, Week 6, ITT, angioedema at baseline
[17] = 400 mg TID, Week 6, omalizumab-naïve
[18] = 400 mg TID, Week 6, omalizumab-naïve, angioedema at baseline
[19] = 400 mg TID, Week 7, ITT, angioedema at baseline
[20] = 400 mg TID, Week 7, omalizumab-naïve
[21] = 400 mg TID, Week 7, omalizumab-naïve, angioedema at baseline
[22] = 400 mg TID, Week 8, ITT, angioedema at baseline
[23] = 400 mg TID, Week 8, omalizumab-naïve
[24] = 400 mg TID, Week 8, omalizumab-naïve, angioedema at baseline

## CC(C)(C=C(C#N)C(=O)N1CCC[C@@H](n2nc(-c3ccc(Oc4ccccc4)cc3F)c3c(N)ncnc32)C1)N1CCN(C2COC2)CC1 [rilzabrutinib, (R)-2-[3-[4-amino-3-(2-fluoro-4-phenoxy-phenyl)pyrazolo[3,4-d]pyrimidin-1-yl]piperidine-1-carbonyl]-4-methyl-4-[4-(oxetan-3-yl)piperazin-1-yl]pent-2-enenitrile]
400 mg QPM, Week 12, omalizumab-naïve, angioedema at baseline
  Participants with AAS7 = 0, Responder n (%): 6 (22.2) n (%)
400 mg TID, ITT population, angioedema at baseline
  LS mean change from baseline in AAS7 at Week 12: −43.36 points
[1]
  AAS7 % Change difference for rilzabrutinib vs. placebo LS Mean (95% CI): −34.55 (−66.00, −3.09) %
  AAS7 % Change from baseline LS Mean (SE): −54.51 (9.77) %
  AAS7 Change difference for rilzabrutinib vs. placebo LS Mean (95% CI): −15.05 (−28.44, −1.67)
  AAS7 Change from baseline LS Mean (SE): −29.55 (4.16)
  AAS7 Post-baseline Mean (SD): 17.50 (22.29)
[2]
  Non-responder n (%), AAS7 = 0: 16 (47.1) n (%)
  OR (95% CI) for rilzabrutinib vs. placebo, AAS7 = 0: 2.576
  RRD (%) for rilzabrutinib vs. placebo (95% CI), AAS7 = 0: 21.8 %
  Responder n (%), AAS7 = 0: 18 (52.9) n (%)
[3]
  AAS7 % Change difference for rilzabrutinib vs. placebo LS Mean (95% CI): −36.35 (−71.01, −1.69) %
  AAS7 % Change from baseline LS Mean (SE): −53.40 (10.59) %
  AAS7 = 0, Non-responder n (%): 16 (69.6) n (%)
  AAS7 = 0, OR (95% CI) for rilzabrutinib vs. placebo: 9.250
  AAS7 = 0, RRD (%) for rilzabrutinib vs. placebo (95% CI): 21.8 %
  AAS7 Change difference for rilzabrutinib vs. placebo LS Mean (95% CI): −16.03 (−30.69, −1.38)
  AAS7 Change from baseline LS Mean (SE): −29.80 (4.48)
  AAS7 Post-baseline Mean (SD): 18.96 (23.24)
  Participants with AAS7 = 0, Responder n (%): 7 (30.4) n (%)
[4]
  AAS7 % Change from baseline LS Mean (SE): −60.12 (12.38) %
  AAS7 Change difference for rilzabrutinib vs. placebo LS Mean (95% CI): −11.45 (−23.02, 0.12)
  AAS7 Change from baseline LS Mean (SE): −32.35 (4.37)
  AAS7 Post-baseline Mean (SD): 15.52 (20.15)
[5]
  Non-responder n (%), AAS7 = 0: 16 (47.1) n (%)
  OR (95% CI) for rilzabrutinib vs. placebo, AAS7 = 0: 1.556
  RRD (%) for rilzabrutinib vs. placebo (95% CI), AAS7 = 0: 10.2 %
  Responder n (%), AAS7 = 0: 18 (52.9) n (%)
[6]
  AAS7 % Change difference for rilzabrutinib vs. placebo LS Mean (95% CI): −22.03 (−57.92, 13.85) %
  AAS7 % Change from baseline LS Mean (SE): −59.25 (13.33) %
  AAS7 = 0, Non-responder n (%): 14 (60.9) n (%)
  AAS7 = 0, OR (95% CI) for rilzabrutinib vs. placebo: 1.922
  AAS7 = 0, RRD (%) for rilzabrutinib vs. placebo (95% CI): 12.9 %
  AAS7 Post-baseline Mean (SD): 17.03 (20.90)
  Participants with AAS7 = 0, Responder n (%): 9 (39.1) n (%)
[7]
  AAS7 % Change difference for rilzabrutinib vs. placebo LS Mean (95% CI): −24.93 (−66.27, 16.41) %
  AAS7 % Change from baseline LS Mean (SE): −73.45 (15.58) %
  AAS7 Change difference for rilzabrutinib vs. placebo LS Mean (95% CI): −12.00 (−23.87, −0.13)
  AAS7 Change from baseline LS Mean (SE): −36.15 (4.48)
  AAS7 Post-baseline Mean (SD): 13.26 (21.30)
[8]
  Non-responder n (%), AAS7 = 0: 12 (35.3) n (%)
  OR (95% CI) for rilzabrutinib vs. placebo, AAS7 = 0: 3.010
  RRD (%) for rilzabrutinib vs. placebo (95% CI), AAS7 = 0: 26.5 %
  Responder n (%), AAS7 = 0: 22 (64.7) n (%)
[9]
  AAS7 % Change difference for rilzabrutinib vs. placebo LS Mean (95% CI): −25.10 (−70.77, 20.57) %
  AAS7 % Change from baseline LS Mean (SE): −72.78 (16.93) %
  AAS7 = 0, Non-responder n (%): 11 (47.8) n (%)
  AAS7 = 0, OR (95% CI) for rilzabrutinib vs. placebo: 3.063
  AAS7 = 0, RRD (%) for rilzabrutinib vs. placebo (95% CI): 22.5 %
  AAS7 Post-baseline Mean (SD): 14.08 (22.48)
  Participants with AAS7 = 0, Responder n (%): 12 (52.2) n (%)
[10]
  AAS7 % Change difference for rilzabrutinib vs. placebo LS Mean (95% CI): −41.77 (−78.55, −4.98) %
  AAS7 % Change from baseline LS Mean (SE): −78.35 (13.78) %
  AAS7 Change difference for rilzabrutinib vs. placebo LS Mean (95% CI): −15.67 (−27.11, −4.22)
  AAS7 Change from baseline LS Mean (SE): −38.27 (4.30)
  AAS7 Post-baseline Mean (SD): 11.20 (15.95)
[11]
  Non-responder n (%), AAS7 = 0: 18 (52.9) n (%)
  RRD (%) for rilzabrutinib vs. placebo (95% CI), AAS7 = 0: 1.1 %
  Responder n (%), AAS7 = 0: 16 (47.1) n (%)
[12]
  AAS7 % Change difference for rilzabrutinib vs. placebo LS Mean (95% CI): −49.61 (−90.06, −9.16) %
  AAS7 % Change from baseline LS Mean (SE): −79.54 (14.89) %
  AAS7 = 0, Non-responder n (%): 14 (60.9) n (%)
  AAS7 = 0, OR (95% CI) for rilzabrutinib vs. placebo: 1.519
  AAS7 = 0, RRD (%) for rilzabrutinib vs. placebo (95% CI): 7.3 %
  AAS7 Post-baseline Mean (SD): 11.73 (16.82)
  Participants with AAS7 = 0, Responder n (%): 9 (39.1) n (%)
[13]
  AAS7 % Change from baseline LS Mean (SE): −69.87 (9.90) %
  AAS7 Change difference for rilzabrutinib vs. placebo LS Mean (95% CI): −9.32 (−20.56, 1.93)
  AAS7 Change from baseline LS Mean (SE): −38.91 (4.22)
[14]
  Non-responder n (%), AAS7 = 0: 14 (41.2) n (%)
  OR (95% CI) for rilzabrutinib vs. placebo, AAS7 = 0: 1.359
  RRD (%) for rilzabrutinib vs. placebo (95% CI), AAS7 = 0: 7.5 %
  Responder n (%), AAS7 = 0: 20 (58.8) n (%)
[15]
  AAS7 % Change difference for rilzabrutinib vs. placebo LS Mean (95% CI): −17.62 (−46.15, 10.90) %
  AAS7 = 0, Non-responder n (%): 13 (56.5) n (%)
  AAS7 = 0, OR (95% CI) for rilzabrutinib vs. placebo: 1.550
  AAS7 = 0, RRD (%) for rilzabrutinib vs. placebo (95% CI): 9.8 %
  AAS7 Post-baseline Mean (SD): 10.83 (15.39)
  Participants with AAS7 = 0, Responder n (%): 10 (43.5) n (%)
[16]
  AAS7 Change difference for rilzabrutinib vs. placebo LS Mean (95% CI): −11.42 (−23.52, 0.68)
  AAS7 Change from baseline LS Mean (SE): −38.03 (4.48)
  AAS7 Post-baseline Mean (SD): 12.73 (19.47)
[17]
  Non-responder n (%), AAS7 = 0: 14 (41.2) n (%)
  OR (95% CI) for rilzabrutinib vs. placebo, AAS7 = 0: 1.334
  RRD (%) for rilzabrutinib vs. placebo (95% CI), AAS7 = 0: 6.5 %
  Responder n (%), AAS7 = 0: 20 (58.8) n (%)
[18]
  AAS7 % Change difference for rilzabrutinib vs. placebo LS Mean (95% CI): −15.46 (−46.06, 15.15) %
  AAS7 = 0, Non-responder n (%): 12 (52.2) n (%)
  AAS7 = 0, OR (95% CI) for rilzabrutinib vs. placebo: 1.874
  AAS7 = 0, RRD (%) for rilzabrutinib vs. placebo (95% CI): 13.5 %
  AAS7 Post-baseline Mean (SD): 13.55 (20.58)
  Participants with AAS7 = 0, Responder n (%): 11 (47.8) n (%)
[19]
  AAS7 % Change difference for rilzabrutinib vs. placebo LS Mean (95% CI): −22.57 (−53.40, 8.26) %
  AAS7 % Change from baseline LS Mean (SE): −68.52 (11.69) %
  AAS7 Change difference for rilzabrutinib vs. placebo LS Mean (95% CI): −9.86 (−21.60, 1.88)
  AAS7 Change from baseline LS Mean (SE): −37.16 (4.45)
  AAS7 Post-baseline Mean (SD): 12.07 (15.62)
[20]
  Non-responder n (%), AAS7 = 0: 15 (44.1) n (%)
  OR (95% CI) for rilzabrutinib vs. placebo, AAS7 = 0: 1.277
  RRD (%) for rilzabrutinib vs. placebo (95% CI), AAS7 = 0: 6.5 %
  Responder n (%), AAS7 = 0: 19 (55.9) n (%)
[21]
  AAS7 % Change difference for rilzabrutinib vs. placebo LS Mean (95% CI): −20.11 (−53.85, 13.63) %
  AAS7 % Change from baseline LS Mean (SE): −67.11 (12.58) %
  AAS7 = 0, Non-responder n (%): 13 (56.5) n (%)
  AAS7 = 0, OR (95% CI) for rilzabrutinib vs. placebo: 1.351
  AAS7 = 0, RRD (%) for rilzabrutinib vs. placebo (95% CI): 7.2 %
  AAS7 Post-baseline Mean (SD): 12.43 (15.87)
  Participants with AAS7 = 0, Responder n (%): 10 (43.5) n (%)
[22]
  AAS7 % Change difference for rilzabrutinib vs. placebo LS Mean (95% CI): −22.25 (−53.63, 9.12) %
  AAS7 % Change from baseline LS Mean (SE): −74.30 (11.67) %
  AAS7 Change difference for rilzabrutinib vs. placebo LS Mean (95% CI): −11.02 (−22.54, 0.50)
  AAS7 Change from baseline LS Mean (SE): −39.35 (4.28)
  AAS7 Post-baseline Mean (SD): 11.17 (12.56)
[23]
  Non-responder n (%), AAS7 = 0: 19 (55.9) n (%)
  OR (95% CI) for rilzabrutinib vs. placebo, AAS7 = 0: 0.964
  RRD (%) for rilzabrutinib vs. placebo (95% CI), AAS7 = 0: −0.9 %
  Responder n (%), AAS7 = 0: 15 (44.1) n (%)
[24]
  AAS7 % Change from baseline LS Mean (SE): −73.05 (12.72) %
  AAS7 = 0, Non-responder n (%): 17 (73.9) n (%)
